According to US10669272B2, “Substituted naphthyridinone compounds useful as T cell activators” (BRISTOL-MYERS SQUIBB COMPANY, priority 2018, dated 2020):
Like-named read-outs stand apart in the source and are kept apart here.

Key:
human DGKα = target: T1, human DGKα (Homo sapiens, UniProt P23743); assay: DGKα LIPGLO assay (extruded liposome substrate), in vitro DGK inhibition; assay type: biochemical; settings: liposome (LIPGLO) assay; read-out: DGKa LIPGLO IC50
T1 construct: TVMV protease cleavage site (C); Hexa-His (C); made in house; host or cells: Sf9 insect cells (baculovirus, Bac-to-Bac)

human DGKζ = target: T2, human DGKζ (Homo sapiens, UniProt Q13574); assay: DGKζ LIPGLO assay (extruded liposome substrate), in vitro DGK inhibition; assay type: biochemical; settings: liposome (LIPGLO) assay; read-out: DGKz LIPGLO IC50
T2 construct: TVMV protease cleavage site (C); Hexa-His (C); made in house; host or cells: Sf9 insect cells (baculovirus, Bac-to-Bac)

[1] = tested on: OT-1 CD8+ T cells with SIINFEKL-loaded MC38 tumor cells; assay: Murine cytotoxic T lymphocyte assay (IFN-γ, OT-1 CTL with MC38 tumor cells); assay type: cell-based, mouse; settings: read-out: msCTL INFg IC50
How it was run: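 IFN-γ was quantified by AlphaLISA in supernatants after 24 h co-culture at 37° C. Effectors were OT-1 CD8+ CTLs (5-day peptide/mIL2 expansion), exposed 1 h to DGK inhibitors before mixing 1:10 with MC38 tumor cells loaded 3 h with 1 μg/mL SIINFEKL peptide.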

naïve human CD8 T cells = assay: Human CD8 T cells IFN-γ assay; assay type: cell-based; settings: normalized to 3 μM reference compound with anti-CD3 plus anti-CD28 as 100% activation, read-out: HuCD8 INFG Normalized EC50;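 further: Naïve human CD8 T cells stimulated with plate-bound anti-CD3 and soluble anti-CD28, IFN-γ in supernatant quantified by AlphaLISA and converted to pg/mL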
Human venous whole blood = assay: Human whole blood IFN-γ assay; assay type: cell-based; settings: human whole blood, normalized to 3 μM reference compound with anti-CD3 plus anti-CD28 as 100% activation, read-out: INFg Whole Blood Normalized Agonist EC50;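 further: blood from healthy donors exposed to compound for 1 h before stimulation with anti-CD3 and anti-CD28 at 1 µg/mL each, IFN-γ quantified in supernatant by AlphaLISA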
Protocol: Human Whole Blood IFN-γ Assay
Human venous whole blood (22.5 μL per well), obtained from healthy donors, was pre-treated with compounds for one hour at 37° C. in a humidified 95% air/5% CO2 incubator. The blood was stimulated with 2.5 μL anti-human CD3 and anti-CD28 mAb at a final concentration of 1 μg/mL each for 24 hours at 37° C. IFN-γ in the supernatants was measured using AlphLISA kit (Cat # AL217).

T2 sequence (Q13574 with tags, fused parts or gaps isoform Q13574-4): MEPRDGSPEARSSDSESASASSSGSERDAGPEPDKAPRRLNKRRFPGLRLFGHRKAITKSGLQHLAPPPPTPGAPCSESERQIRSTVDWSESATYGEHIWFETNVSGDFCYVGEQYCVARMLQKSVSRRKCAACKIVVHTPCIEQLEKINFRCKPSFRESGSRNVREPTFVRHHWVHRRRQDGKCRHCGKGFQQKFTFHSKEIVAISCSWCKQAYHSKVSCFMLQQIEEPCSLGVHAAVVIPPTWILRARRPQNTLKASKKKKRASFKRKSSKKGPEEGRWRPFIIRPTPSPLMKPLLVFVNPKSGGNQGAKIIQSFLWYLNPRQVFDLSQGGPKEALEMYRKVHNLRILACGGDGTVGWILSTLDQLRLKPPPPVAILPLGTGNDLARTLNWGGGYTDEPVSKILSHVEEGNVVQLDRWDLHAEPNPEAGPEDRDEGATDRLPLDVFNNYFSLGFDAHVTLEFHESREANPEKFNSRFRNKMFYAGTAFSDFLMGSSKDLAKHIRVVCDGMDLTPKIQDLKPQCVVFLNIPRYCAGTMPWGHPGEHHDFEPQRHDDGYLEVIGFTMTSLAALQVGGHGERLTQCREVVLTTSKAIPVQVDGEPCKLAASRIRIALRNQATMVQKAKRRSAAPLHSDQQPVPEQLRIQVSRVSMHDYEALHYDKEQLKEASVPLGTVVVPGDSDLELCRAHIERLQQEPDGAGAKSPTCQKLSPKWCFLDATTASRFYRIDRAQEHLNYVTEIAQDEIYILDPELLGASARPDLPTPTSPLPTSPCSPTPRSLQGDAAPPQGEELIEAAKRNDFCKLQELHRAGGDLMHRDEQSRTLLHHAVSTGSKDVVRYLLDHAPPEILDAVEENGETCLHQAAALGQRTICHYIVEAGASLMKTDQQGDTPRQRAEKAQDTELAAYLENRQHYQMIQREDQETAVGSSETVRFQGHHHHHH
T1 sequence (P23743 with tags, fused parts or gaps): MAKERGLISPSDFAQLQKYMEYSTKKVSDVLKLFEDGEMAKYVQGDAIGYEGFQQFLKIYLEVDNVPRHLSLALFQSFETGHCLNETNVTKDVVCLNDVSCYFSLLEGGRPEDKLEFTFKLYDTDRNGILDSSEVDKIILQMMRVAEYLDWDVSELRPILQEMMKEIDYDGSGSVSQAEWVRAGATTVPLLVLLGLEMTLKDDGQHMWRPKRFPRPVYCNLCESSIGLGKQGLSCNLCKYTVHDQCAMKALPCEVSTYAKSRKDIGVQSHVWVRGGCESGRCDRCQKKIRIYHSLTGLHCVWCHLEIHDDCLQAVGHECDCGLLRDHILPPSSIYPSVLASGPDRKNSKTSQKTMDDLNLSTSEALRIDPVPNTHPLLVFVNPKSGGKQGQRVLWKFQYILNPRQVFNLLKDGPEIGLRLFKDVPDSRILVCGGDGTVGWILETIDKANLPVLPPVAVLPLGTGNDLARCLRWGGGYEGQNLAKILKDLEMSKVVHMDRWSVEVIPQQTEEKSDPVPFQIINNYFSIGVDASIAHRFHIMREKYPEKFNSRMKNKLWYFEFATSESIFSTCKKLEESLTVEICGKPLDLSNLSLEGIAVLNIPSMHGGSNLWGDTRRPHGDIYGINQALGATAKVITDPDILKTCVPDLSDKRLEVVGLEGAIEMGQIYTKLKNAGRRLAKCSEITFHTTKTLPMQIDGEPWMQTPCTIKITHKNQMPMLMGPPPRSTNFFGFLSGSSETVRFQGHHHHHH

Compound	IC50 (human DGKα) [nM]	IC50 (human DGKζ) [nM]	IC50 [1] [nM]	EC50 (naïve human CD8 T cells) [nM]	EC50 (Human venous whole blood) [nM]	IC50 ([1]; Mus musculus, MC-38) [nM]	EC50 (naïve human CD8 T cells; Homo sapiens, T-cell, 20 h) [nM]	EC50 (Human venous whole blood; Homo sapiens, 24 h) [nM]	EC50 (Human venous whole blood; Homo sapiens) [nM]
COc1cc(F)ccc1C(c1ccc(F)cc1)N1C[C@H](C)N(c2cc(=O)n(C)c3ccc(C#N)nc23)C[C@H]1C (single isomer, unassigned) [Example 109]	24000	100	480	15	1300	–	–	–	–
C[C@@H]1CN(c2cc(=O)n(C)c3ccc(C#N)nc23)[C@@H](C)CN1C(c1ccc(F)cc1)c1ccc(C#N)cc1 (single isomer, unassigned) [Example 306]	470	1300	–	–	–	53	54	530	–
CC(C)[C@@H]1CN(c2c(C#N)c(=O)n(C)c3ccc(C#N)nc23)CCN1C(c1ccc(F)cc1)c1ccc(F)cc1 [Example 169, (R)-8-(4-(bis(4-fluorophenyl)methyl)-3-isopropylpiperazin-1-yl)-5-methyl-6-oxo-5,6-dihydro-1,5-naphthyridine-2,7-dicarbonitrile]	3200	77000	–	–	–	2600	440	13000	–
C[C@H]1CN(c2c(C#N)c(=O)n(C)c3ccc(C#N)nc23)CCN1C(c1ccc(F)cc1)c1ccc(F)cc1 [Example 38, (S)-8-(4-(bis(4-fluorophenyl)methyl)-3-methylpiperazin-1-yl)-5-methyl-6-oxo-5,6-dihydro-1,5-naphthyridine-2,7-dicarbonitrile]	2200	1800	–	–	–	78	67	3200	–
CC[C@@H]1CN(c2c(C#N)c(=O)n(C)c3ccc(C#N)nc23)CCN1C(c1ccc(Cl)cc1)c1ccc(Cl)cc1 [Example 179, (R)-8-(4-(bis(4-chlorophenyl)methyl)-3-ethylpiperazin-1-yl)-5-methyl-6-oxo-5,6-dihydro-1,5-naphthyridine-2,7-dicarbonitrile]	880	880	–	–	–	49	52	1000	–
Cc1ccc(C(c2ccc(Cl)cc2)N2C[C@H](C)N(c3cc(=O)n(C)c4ccc(C#N)nc34)C[C@H]2C)cc1 (single isomer, unassigned) [Example 247]	370	210	–	–	–	110	120	390	–
C[C@@H]1CN(c2cc(=O)n(C)c3ccc(C#N)nc23)CCN1C(c1ccc(F)cc1)c1ccc(F)cc1 [Example 28, (R)-8-(4-(bis(4-fluorophenyl)methyl)-3-methylpiperazin-1-yl)-5-methyl-6-oxo-5,6-dihydro-1,5-naphthyridine-2-carbonitrile]	4600	2100	–	–	–	570	38	5300	–
C[C@@H]1CN(c2c(F)c(=O)n(C)c3ccc(C#N)nc23)CCN1C(c1ccc(F)cc1)c1ccc(F)cc1 [Example 30, (R)-8-(4-(bis(4-fluorophenyl)methyl)-3-methylpiperazin-1-yl)-7-fluoro-5-methyl-6-oxo-5,6-dihydro-1,5-naphthyridine-2-carbonitrile]	500	430	–	–	–	15	430	1600	–
Cn1c(=O)c(Cl)c(N2CCN(C(c3ccc(F)cc3)c3ccc(F)cc3)C(CO)C2)c2nc(C#N)ccc21 (single isomer, unassigned) [Example 100, 8-(4-(bis (4-fluorophenyl)methyl)-3-(hydroxymethyl)piperazin-1-yl)-7-chloro-5-methyl-6-oxo-5,6-dihydro-1,5-naphthyridine-2-carbonitrile]	1900	3100	–	–	–	110	89	1400	–
CC[C@@H]1CN(c2c(F)c(=O)n(C)c3ccc(C#N)nc23)CCN1C(c1ccc(F)cc1)c1ccc(F)cc1 [Example 174, (R)-8-(4-(bis(4-fluorophenyl)methyl)-3-ethylpiperazin-1-yl)-7-fluoro-5-methyl-6-oxo-5,6-dihydro-1,5-naphthyridine-2-carbonitrile]	820	430	–	–	–	110	34	2200	–
Cn1c(=O)cc(N2CCN(C(c3ccc(F)cc3)c3ccc(F)cc3)C(C(C)(C)O)C2)c2nc(C#N)ccc21 (single isomer, unassigned) [Example 78, 8-(4-(bis(4-fluorophenyl)methyl)-3-(2-hydroxypropan-2-yl)piperazin-1-yl)-5-methyl-6-oxo-5,6-dihydro-1,5-naphthyridine-2-carbonitrile]	18000	1900	2000	210	–	–	–	8400	–
C[C@@H]1CN(c2cc(=O)n(C)c3ccc(C#N)nc23)[C@@H](C)CN1C(c1ccc(F)cc1)c1ccc(Cl)cc1 (single isomer, unassigned) [Example 302]	170	640	24	23	–	–	–	570	–
COC(=O)C1CN(c2cc(=O)n(C)c3ccc(C#N)nc23)CCN1C(c1ccc(F)cc1)c1ccc(F)cc1 (stereo not shown) [Example 27, Methyl 1-(bis(4-fluorophenyl)methyl)-4-(6-cyano-1-methyl-2-oxo-1,2-dihydro-1,5-naphthyridin-4-yl)piperazine-2-carboxylate]	240000	1700	–	–	–	64	62	–	520
C[C@@H]1CN(c2cc(=O)n(C)c3ccc(C#N)nc23)[C@@H](C)CN1Cc1ccc(F)c(F)c1 [Example 291, 8-[(2S,5R)-4-[(3,4-difluorophenyl)methyl]-2,5-dimethylpiperazin-1-yl]-5-methyl-6-oxo-5,6-dihydro-1,5-naphthyridine-2-carbonitrile]	600	1500	–	–	–	470	34	1300	–
